Conditions: Liquid, Vibrating tube method

CCCCCCCCCC [decane]
Conditions | mass density [kg/m3]
323.14 K, 29147 kPa | 730.4
323.14 K, 29286 kPa | 730.6
323.14 K, 29368 kPa | 730.6
323.14 K, 29415 kPa | 730.5
323.14 K, 29637 kPa | 730.8
323.14 K, 29675 kPa | 730.8
323.14 K, 29724 kPa | 730.9
323.14 K, 29765 kPa | 730.8
323.14 K, 29800 kPa | 730.9
323.14 K, 29840 kPa | 731
323.14 K, 29872 kPa | 731
323.14 K, 29908 kPa | 730.9
323.14 K, 29935 kPa | 731
323.14 K, 29962 kPa | 730.9
323.14 K, 29999 kPa | 731.1
323.14 K, 30026 kPa | 731
323.14 K, 30054 kPa | 731.1
323.14 K, 30082 kPa | 731.1
323.14 K, 30114 kPa | 731.1
323.14 K, 30147 kPa | 731.1
323.14 K, 30180 kPa | 731.2
323.14 K, 30217 kPa | 731.1
323.14 K, 30240 kPa | 731.2
323.14 K, 30273 kPa | 731.2
323.14 K, 30306 kPa | 731.2
323.14 K, 30353 kPa | 731.3
323.14 K, 30381 kPa | 731.3
323.14 K, 30409 kPa | 731.3
323.14 K, 30447 kPa | 731.3
323.14 K, 30475 kPa | 731.3
323.14 K, 30513 kPa | 731.3
323.14 K, 30547 kPa | 731.4
323.14 K, 30586 kPa | 731.4
323.14 K, 30624 kPa | 731.4
323.14 K, 30652 kPa | 731.6
323.14 K, 30686 kPa | 731.6
323.14 K, 30720 kPa | 731.5
323.14 K, 30753 kPa | 731.7
323.14 K, 30787 kPa | 731.5
323.14 K, 30816 kPa | 731.5
323.14 K, 30851 kPa | 731.7
323.14 K, 30890 kPa | 731.5
323.14 K, 30919 kPa | 731.6
323.14 K, 30964 kPa | 731.6
323.14 K, 30993 kPa | 731.6
323.14 K, 31028 kPa | 731.6
323.14 K, 31068 kPa | 731.8
323.14 K, 31097 kPa | 731.8
323.14 K, 31257 kPa | 731.9
323.14 K, 31307 kPa | 732
323.14 K, 31343 kPa | 731.9
323.14 K, 31374 kPa | 732
323.14 K, 31421 kPa | 732.1
323.14 K, 31463 kPa | 732
323.14 K, 31495 kPa | 732.1
323.14 K, 31537 kPa | 732.1
323.14 K, 31569 kPa | 732
323.14 K, 31606 kPa | 732.1
323.14 K, 31636 kPa | 732.2
323.14 K, 31661 kPa | 732.2
323.14 K, 31690 kPa | 732.1
323.14 K, 31715 kPa | 732.2
323.14 K, 31736 kPa | 732.2
323.14 K, 31774 kPa | 732.2
323.14 K, 31812 kPa | 732.3
323.14 K, 31838 kPa | 732.2
323.14 K, 31872 kPa | 732.3
323.14 K, 31911 kPa | 732.5
323.14 K, 31949 kPa | 732.3
323.14 K, 31979 kPa | 732.3
323.14 K, 32017 kPa | 732.4
323.14 K, 32056 kPa | 732.4
323.14 K, 32082 kPa | 732.5
323.14 K, 32116 kPa | 732.5
323.14 K, 32143 kPa | 732.5
323.14 K, 32175 kPa | 732.5
323.14 K, 32205 kPa | 732.5
323.14 K, 32236 kPa | 732.4
323.14 K, 32266 kPa | 732.6
323.14 K, 32305 kPa | 732.5
323.14 K, 32332 kPa | 732.6
323.14 K, 32363 kPa | 732.6
323.14 K, 32403 kPa | 732.7
323.14 K, 32438 kPa | 732.7
323.14 K, 32465 kPa | 732.8
323.14 K, 32522 kPa | 732.8
323.14 K, 32717 kPa | 732.9
323.14 K, 32817 kPa | 733
323.14 K, 32841 kPa | 733
323.14 K, 32902 kPa | 733
323.14 K, 32934 kPa | 733.1
323.14 K, 32966 kPa | 732.9
323.14 K, 32994 kPa | 733.1
323.14 K, 33023 kPa | 733
323.14 K, 33048 kPa | 733
323.14 K, 33069 kPa | 733.1
323.14 K, 33090 kPa | 733.2
323.14 K, 33114 kPa | 733.2
323.14 K, 33147 kPa | 733.2
323.14 K, 33173 kPa | 733.2
323.14 K, 33193 kPa | 733.3
323.14 K, 33219 kPa | 733.3
323.14 K, 33249 kPa | 733.2
323.14 K, 33274 kPa | 733.3
323.14 K, 33300 kPa | 733.3
323.14 K, 33334 kPa | 733.3
323.14 K, 33356 kPa | 733.2
323.14 K, 33387 kPa | 733.4
323.14 K, 33504 kPa | 733.4
323.14 K, 33553 kPa | 733.5
323.14 K, 33615 kPa | 733.5
323.14 K, 33644 kPa | 733.5
323.14 K, 33671 kPa | 733.6
323.14 K, 33690 kPa | 733.5
323.14 K, 33720 kPa | 733.5
323.14 K, 33749 kPa | 733.6
323.14 K, 33775 kPa | 733.6
323.14 K, 33801 kPa | 733.6
323.14 K, 33824 kPa | 733.6
323.14 K, 33858 kPa | 733.7
323.14 K, 33895 kPa | 733.7
323.14 K, 33921 kPa | 733.8
323.14 K, 33948 kPa | 733.7
323.14 K, 33971 kPa | 733.8
323.14 K, 34266 kPa | 733.9
323.14 K, 34292 kPa | 734
323.14 K, 34329 kPa | 733.9
323.14 K, 34363 kPa | 733.9
323.15 K, 688 kPa | 707.4
323.15 K, 762 kPa | 707.5
323.15 K, 781 kPa | 707.5
323.15 K, 802 kPa | 707.6
323.15 K, 828 kPa | 707.5
323.15 K, 851 kPa | 707.6
323.15 K, 875 kPa | 707.7
323.15 K, 894 kPa | 707.6
323.15 K, 924 kPa | 707.7

From the NIST ThermoML archive (doi:10.1021/je800110r)
